Experimental findings from patent US7739055B2, “Methods and systems for generating and evaluating peptides” (priority 2005, dated 2010) are described below.

Assay [1] deals with Sterne strain of Bacillus anthracis.
Assay [2] has as its system Smith Diffuse strain of Staphylococcus aureus.
The mark [3] stands for this setting: first concentration that prohibits growth by OD at 24 hours, Table 1.

≈ marks a conversion by molar mass, not a printed value. Like-named read-outs stand apart in the source and are kept apart here. Where a SMILES comes first, the peptide text is derived from it.

Consider GVSVAGAKKVKVLFVFPFLF [Shuffled 28], for which the “MIC B. anthracis” value in assay [1] is listed as “+ (key: +: MIC greater than 256 ug/mL; ++: MIC greater than 128 ug/mL, not sufficiently soluble to test as 256 ug/mL)”. For the same molecule, the “MIC E. coli” value in the assay on Escherichia coli (setting [3]) is on record as “+ (MIC greater than 256 ug/mL)”. For the same molecule, in assay [2] (Smith Diffuse strain, Table 1), the “MIC S. aureus” value is listed as “+ (MIC greater than 256 ug/mL)”. Moreover, the “MIC B. cereus” value in the assay with B. cereus (setting [3]) is given as “+ (MIC greater than 256 ug/mL)”.
In the case of KVFIATLVVSSFLLAKPPRV [Shuffled 35], the “MIC B. anthracis” value in assay [1] was “+ (key: +: MIC greater than 256 ug/mL; ++: MIC greater than 128 ug/mL, not sufficiently soluble to test as 256 ug/mL)”. For the same molecule, in the assay on Escherichia coli (setting [3]), the “MIC E. coli” value is “+ (MIC greater than 256 ug/mL)”. Also, the “MIC S. aureus” value in assay [2] (Smith Diffuse strain, Table 1) is reported as “+ (MIC greater than 256 ug/mL)”. Moreover, in the assay with B. cereus (setting [3]), the “MIC B. cereus” value is on record as “+ (MIC greater than 256 ug/mL)”.
Regarding `CC[C@H](C)[C@H](NC(=O)[C@@H](NC(=O)[C@H](C)NC(=O)[C@@H]1CCCN1C(=O)[C@H](Cc1ccccc1)NC(=O)[C@@H](NC(=O)[C@H](CCCCN)NC(=O)[C@H](CO)NC(=O)[C@H](C)NC(=O)[C@@H](NC(=O)[C@H](CCCNC(=N)N)NC(=O)[C@H](Cc1ccccc1)NC(=O)[C@H](CC(C)C)NC(=O)[C@H](C)NC(=O)CNC(=O)[C@@H](N)CC(C)C)C(C)C)C(C)C)C(C)C)C(=O)N[C@@H](CO)C(=O)N[C@@H](CCSC)C(=O)N[C@H](C(=O)N[C@@H](CCCCN)C(=O)O)C(C)C` [Peptide 22] (H-LGALFRVASKVFPAVISMVK-OH; N-terminus and C-terminus assumed), in assay [1], the “MIC B. anthracis” value turned out to be 64 mg/L (≈ 30 µM). Further, the “MIC E. coli” value in the assay on Escherichia coli (24 h) is 256 mg/L (≈ 120 µM). In addition, the “MIC S. aureus” value in assay [2] (Smith Diffuse strain of) was 64 mg/L (≈ 30 µM). Besides, the “MIC B. cereus” value against B. cereus (24 h) is 64 mg/L (≈ 30 µM).
With SVPSVGAVLFFKRAAVMKLI [Shuffled 22], in assay [1], the “MIC B. anthracis” value is “+ (key: +: MIC greater than 256 ug/mL; ++: MIC greater than 128 ug/mL, not sufficiently soluble to test as 256 ug/mL)”. Moreover, in the assay on Escherichia coli (setting [3]), the “MIC E. coli” value was “+ (MIC greater than 256 ug/mL)”. The “MIC S. aureus” value in assay [2] (Smith Diffuse strain, Table 1) was “+ (MIC greater than 256 ug/mL)”. Also, in the assay on B. cereus (setting [3]), the “MIC B. cereus” value is “+ (MIC greater than 256 ug/mL)”.
Take `CC[C@H](C)[C@H](NC(=O)[C@H](CC(C)C)NC(=O)[C@H](C)NC(=O)[C@@H]1CCCN1C(=O)[C@H](C)NC(=O)[C@@H](NC(=O)[C@H](CCCCN)NC(=O)[C@@H](N)CCCNC(=N)N)C(C)C)C(=O)N[C@@H](CCCCN)C(=O)N[C@@H](CO)C(=O)N[C@@H](Cc1ccccc1)C(=O)N[C@H](C(=O)N[C@@H](Cc1ccccc1)C(=O)N[C@@H](CC(C)C)C(=O)N[C@@H](Cc1ccccc1)C(=O)N[C@@H](CCCCN)C(=O)N[C@@H](Cc1ccccc1)C(=O)N[C@@H](CCCCN)C(=O)N[C@@H](CCCCN)C(=O)NCC(=O)O)C(C)C` [Shuffled 51] (H-RKVAPALIKSFVFLFKFKKG-OH; N-terminus and C-terminus assumed): the “MIC B. anthracis” value in assay [1] amounted to 256 mg/L (≈ 110 µM). The “MIC E. coli” value against Escherichia coli is “+ (key: +: MIC greater than 256 ug/mL; ++: MIC greater than 128 ug/mL, not sufficiently soluble to test as 256 ug/mL)”. In addition, in assay [2] (Smith Diffuse strain of), the “MIC S. aureus” value was 128 mg/L (≈ 55.1 µM).
For `CC(C)C[C@H](NC(=O)CNC(=O)[C@H](Cc1ccccc1)NC(=O)[C@H](CC(C)C)NC(=O)[C@@H](N)Cc1ccccc1)C(=O)N[C@@H](C)C(=O)N[C@@H](CO)C(=O)N[C@@H](CCCCN)C(=O)N[C@H](C(=O)N[C@@H](Cc1ccccc1)C(=O)N1CCC[C@H]1C(=O)N[C@@H](C)C(=O)N[C@H](C(=O)N[C@@H](Cc1ccc(O)cc1)C(=O)N[C@@H](CS)C(=O)N[C@@H](CCCCN)C(=O)N[C@H](C(=O)N[C@H](C(=O)N[C@@H](CCCNC(=N)N)C(=O)N[C@@H](CCCCN)C(=O)O)[C@@H](C)O)C(C)C)C(C)C)C(C)C` [Peptide 5] (H-FLFGLASKVFPAVYCKVTRK-OH; N-terminus and C-terminus assumed), the “MIC B. anthracis” value in assay [1] is 128 mg/L (≈ 56.3 µM). Further, in the assay on Escherichia coli (24 h), the “MIC E. coli” value was determined as 64 mg/L (≈ 28.1 µM). For the same molecule, the “MIC S. aureus” value in assay [2] (Smith Diffuse strain of) was 256 mg/L (≈ 113 µM). In addition, in the assay with B. cereus (24 h), the “MIC B. cereus” value is 256 mg/L (≈ 113 µM).
Turning to THIHMNARLLIRSPFTDPQL [Peptide 10], the “MIC B. anthracis” value in assay [1] is “+ (key: +: MIC greater than 256 ug/mL; ++: MIC greater than 128 ug/mL, not sufficiently soluble to test as 256 ug/mL)”. For the same molecule, the “MIC E. coli” value against Escherichia coli (setting [3]) is on record as “+ (MIC greater than 256 ug/mL)”. Also, the “MIC S. aureus” value in assay [2] is recorded as “+ (key: +: MIC greater than 256 ug/mL; ++: MIC greater than 128 ug/mL, not sufficiently soluble to test as 256 ug/mL)”. Moreover, the “MIC B. cereus” value against B. cereus was “+ (key: +: MIC greater than 256 ug/mL; ++: MIC greater than 128 ug/mL, not sufficiently soluble to test as 256 ug/mL)”.
Turning to `CC[C@H](C)[C@H](NC(=O)[C@H](CCCCN)NC(=O)[C@H](CCCCN)NC(=O)[C@H](Cc1ccccc1)NC(=O)[C@H](CC(C)C)NC(=O)[C@H](CCCCN)NC(=O)[C@H](Cc1c[nH]c2ccccc12)NC(=O)[C@@H](N)CCCCN)C(=O)NCC(=O)N[C@@H](C)C(=O)N[C@H](C(=O)N[C@@H](CC(C)C)C(=O)N[C@@H](CCCCN)C(=O)N[C@H](C(=O)N[C@@H](CC(C)C)C(N)=O)C(C)C)C(C)C` [Cec Mel Hyb, KWKLFKKIGAVLKVL-NH2] (H-KWKLFKKIGAVLKVL-NH2), the “MIC B. anthracis” value in assay [1] was 16 mg/L (≈ 9.04 µM). Besides, in assay [2] (Smith Diffuse strain of), the “MIC S. aureus” value worked out at 4 mg/L (≈ 2.26 µM). The “MIC B. cereus” value against B. cereus (24 h) is 8 mg/L (≈ 4.52 µM).
Regarding ASPTVFRSSVFLSLFVVAKK [Shuffled 43], the “MIC B. anthracis” value in assay [1] is given as “+ (key: +: MIC greater than 256 ug/mL; ++: MIC greater than 128 ug/mL, not sufficiently soluble to test as 256 ug/mL)”. In addition, the “MIC E. coli” value in the assay on Escherichia coli (setting [3]) is reported as “+ (MIC greater than 256 ug/mL)”. Also, the “MIC S. aureus” value in assay [2] (Smith Diffuse strain, Table 1) is recorded as “+ (MIC greater than 256 ug/mL)”. For the same molecule, in the assay with B. cereus (setting [3]), the “MIC B. cereus” value was “+ (MIC greater than 256 ug/mL)”.
Take `CC(C)C[C@H](NC(=O)[C@@H](NC(=O)[C@@H]1CCCN1C(=O)[C@H](CC(C)C)NC(=O)[C@@H](N)Cc1ccccc1)C(C)C)C(=O)N[C@H](C(=O)N[C@@H](CCCCN)C(=O)N[C@H](C(=O)N[C@@H](Cc1ccccc1)C(=O)N[C@@H](CCCNC(=N)N)C(=O)N[C@@H](Cc1ccc(O)cc1)C(=O)N[C@@H](CO)C(=O)N[C@@H](CCCCN)C(=O)N[C@@H](CCCCN)C(=O)N[C@H](C(=O)N[C@@H](C)C(=O)N[C@@H](C)C(=O)NCC(=O)N[C@@H](CS)C(=O)N[C@@H](Cc1ccccc1)C(=O)O)[C@@H](C)O)C(C)C)C(C)C` [Shuffled 5] (H-FLPVLVKVFRYSKKTAAGCF-OH; N-terminus and C-terminus assumed): the “MIC B. anthracis” value in assay [1] is “+ (key: +: MIC greater than 256 ug/mL; ++: MIC greater than 128 ug/mL, not sufficiently soluble to test as 256 ug/mL)”. For the same molecule, the “MIC E. coli” value in the assay on Escherichia coli (setting [3]) was “++ (MIC greater than 128 ug/mL, not sufficiently soluble to test as 256 ug/mL)”. The “MIC S. aureus” value in assay [2] (Smith Diffuse strain, Table 1) is “+ (MIC greater than 256 ug/mL)”. For the same molecule, in the assay on B. cereus (24 h), the “MIC B. cereus” value turned out to be 64 mg/L (≈ 28.1 µM).
With `CC(C)C[C@H](NC(=O)[C@H](CCCCN)NC(=O)[C@H](Cc1ccccc1)NC(=O)[C@H](CC(C)C)NC(=O)[C@@H](NC(=O)[C@@H]1CCCN1C(=O)[C@@H](N)CC(C)C)C(C)C)C(=O)N[C@@H](C)C(=O)N[C@@H](CO)C(=O)N[C@@H](CCCCN)C(=O)N[C@H](C(=O)N[C@@H](Cc1ccccc1)C(=O)N1CCC[C@H]1C(=O)N[C@@H](C)C(=O)N[C@H](C(=O)N[C@@H](Cc1ccccc1)C(=O)N[C@@H](CO)C(=O)N[C@@H](CO)C(=O)N[C@@H](CC(C)C)C(=O)N[C@@H](CCCCN)C(=O)O)C(C)C)C(C)C` [Peptide 63] (H-LPVLFKLASKVFPAVFSSLK-OH; N-terminus and C-terminus assumed), the “MIC B. anthracis” value in assay [1] is 128 mg/L (≈ 58.4 µM). Moreover, the “MIC E. coli” value in the assay with Escherichia coli (24 h) amounted to 256 mg/L (≈ 117 µM). Moreover, in assay [2] (Smith Diffuse strain of), the “MIC S. aureus” value turned out to be 128 mg/L (≈ 58.4 µM). For the same molecule, the “MIC B. cereus” value with B. cereus (24 h) worked out at 64 mg/L (≈ 29.2 µM).
With `CC[C@H](C)[C@H](NC(=O)[C@H](CC(C)C)NC(=O)[C@H](C)NC(=O)[C@@H]1CCCN1C(=O)[C@H](Cc1ccccc1)NC(=O)[C@@H](NC(=O)[C@H](CCCCN)NC(=O)[C@H](CO)NC(=O)[C@H](C)NC(=O)[C@@H](NC(=O)[C@H](CCCNC(=N)N)NC(=O)[C@H](Cc1ccccc1)NC(=O)[C@@H](NC(=O)[C@@H](NC(=O)[C@@H]1CCCN1C(=O)[C@@H](N)CC(C)C)C(C)C)C(C)C)C(C)C)C(C)C)C(=O)N[C@@H](CO)C(=O)N[C@@H](CCCCN)C(=O)N[C@@H](CC(C)C)C(=O)N[C@H](C(=O)O)[C@@H](C)O` [Peptide 35] (H-LPVVFRVASKVFPALISKLT-OH; N-terminus and C-terminus assumed), the “MIC B. anthracis” value in assay [1] stood at 128 mg/L (≈ 58.6 µM). In addition, the “MIC E. coli” value in the assay with Escherichia coli was “+ (key: +: MIC greater than 256 ug/mL; ++: MIC greater than 128 ug/mL, not sufficiently soluble to test as 256 ug/mL)”. For the same molecule, in assay [2] (Smith Diffuse strain of), the “MIC S. aureus” value amounted to 256 mg/L (≈ 117 µM). In addition, in the assay on B. cereus (24 h), the “MIC B. cereus” value turned out to be 256 mg/L (≈ 117 µM).
For `CC(C)C[C@H](NC(=O)[C@H](C)NC(=O)[C@H](CO)NC(=O)[C@H](Cc1ccccc1)NC(=O)[C@@H](NC(=O)[C@H](CO)NC(=O)[C@@H]1CCCN1C(=O)[C@@H](NC(=O)[C@@H](NC(=O)[C@H](CCCCN)NC(=O)[C@H](CO)NC(=O)[C@H](C)NC(=O)[C@H](CC(C)C)NC(=O)[C@H](CCCCN)NC(=O)[C@H](Cc1ccccc1)NC(=O)[C@@H](NC(=O)[C@H](Cc1ccccc1)NC(=O)[C@@H](N)CO)C(C)C)C(C)C)C(C)C)C(C)C)C(=O)N[C@H](C(=O)N[C@@H](CCCNC(=N)N)C(=O)O)[C@@H](C)O` [Peptide 43] (H-SFVFKLASKVVPSVFSALTR-OH; N-terminus and C-terminus assumed), the “MIC B. anthracis” value in assay [1] was 128 mg/L. Besides, the “MIC E. coli” value with Escherichia coli (24 h) stood at 256 mg/L. Also, the “MIC S. aureus” value in assay [2] (Smith Diffuse strain of) is 256 mg/L. Besides, the “MIC B. cereus” value against B. cereus (24 h) stood at 256 mg/L.
